Tests used:
[1] = Stability test of 2′-deoxycytidine and 2′-deoxy-5-fluorocytidine to methoxylamine (1× ORS), LC/MS; type: physicochemical; conditions: 1× ORS (methoxylamine, pH 5.5 acetate), room temperature (FIG. 9)
Method: Stability Test of 2′-Deoxycytidine and 2′-Deoxy-5-Fluorocytidine to methoxylamine Oxime removal solution buffer (2× ORS) was prepared from methyoxylamine hydrochloride (60 mg, 0.71 mmol), water (200 μL), pH 5.5 sodium acetate (200 μL) and 10 M sodium hydroxide (53.4 μL) and additional water (1.4 mL). A previously frozen sample of this buffer was further diluted with water by a factor of two to yield 1× ORS. Samples of 2′-deoxycytidine (˜0.5 mg) and 2′-deoxy-5-fluorocytidine (˜0.5 mg) were dissolved in 1 mL aliquots of the buffer. The samples were analysed by LC/MS immediately after making up the samples and at intervals while stored together at room temperature. Appearance of the reaction products 2′-deoxy-4(N)-methoxy cytidine (1) and 2′-deoxy-4(N)-methoxy-5-fluorocytidine (2) and a corresponding loss of starting material was observed. The corresponding loss of starting material relative to the reaction products is plotted on the graph below.
HPLC Method for LC/MS Analysis

[2] = Stability of 5-position modified 2′-deoxycytidine nucleosides to nitrite solution (nitrite-mediated deamination), LC-MS time course; type: physicochemical
Method: A series of 5-position modified nucleosides were tested. Each was incubated at room temperature in 700 mM NaNO2, 1 M acetate buffer pH 5.5 and the stability assayed by LC-MS over a time course. […] Electron withdrawing substituents such as the fluoro or alkynyl substituents increase stability. Electron donating substituents such as methyl and hydroxymethyl decrease stability.
LC-MS was used to monitor nucleosides throughout a time course of incubation in 700 mM sodium nitrite at pH 5.5. Integration of UV chromatograms was performed, and the percentage of starting nucleoside plotted.
In addition to monitoring the persistence of the starting material UV peak, the deamination products can be monitored. Deamination products were identified by their mass signals and appearance under nitrite incubation (FIG. 5).

In the case of Nc1nc(=O)n([C@H]2C[C@H](O)[C@@H](CO)O2)cc1F [5-fluoro-2′-deoxycytidine], the “stability to methoxylamine treatment relative to canonical dC” value [1] is reported as about 10 × and the “rate of nitrite-mediated deamination, fold lower than the canonical deoxycytidine analogue” value ([2]; 700 mM pH 5.5 nitrite, room temperature (FIG. 1)) is reported as 4 fold.
With Cc1cn([C@H]2C[C@H](O)[C@@H](CO)O2)c(=O)nc1N [5-methyl-2′deoxycytidine, reference compound] the “rate of nitrite-mediated deamination, fold greater than the canonical deoxycytidine analogue” value ([2]; 700 mM pH 5.5 nitrite, room temperature (FIG. 2)) was 2 fold.
In the case of CC#Cc1cn([C@H]2C[C@H](O)[C@@H](CO)O2)c(=O)nc1N [5-propynyl, 5-propynyl-2′-deoxycytidine], the “stability to nitrite solution (in words)” value ([2]; 700 mM NaNO2, 1 M acetate buffer pH 5.5, room temperature, relative to parent deoxycytidine) is reported as “increased stability”.
